Results from patent publication US20180140602A1, “COMBINATION OF CHIMERIC ANTIGEN RECEPTOR THERAPY AND AMINO PYRIMIDINE DERIVATIVES” (Novartis AG, priority 2015, published 2018).
“Also recorded” adds a separate entry of the source.

Experiments:
Jeko-1 cells [1] = assay: Sensitivity to ibrutinib by reduction of bioluminescence; assay type: cell-based, human; settings: 0.1 nM to 10 μM
MCL-RL cells = assay: MCL-RL systemic xenograft model in NSG mice; assay type: in vivo
Mino cells = assay: MTT assay, sensitivity to ibrutinib; assay type: cell-based; settings: Homo sapiens, read-out: IC50, inhibition of proliferation
MCL = MCL treated with ibrutinib monotherapy; cited from earlier work
CART19 cells [2] = assay: level of circulating CART19 cells under ibrutinib treatment (Example 42); assay type: in vivo; settings: data shown in Example 42
RL cells [3] = assay: MTT assay, sensitivity to ibrutinib; assay type: cell-based; settings: Homo sapiens, read-out: IC50, inhibition of proliferation
[4] = patients; cited from earlier work
mantle cell lymphoma = settings: MCL patients; cited from earlier work
Jeko-1 cells [5] = assay: MTT assay, sensitivity to ibrutinib; assay type: cell-based; settings: Homo sapiens; Jeko-1, MTT assay; read-out: IC50, inhibition of proliferation
RL cells [6] = assay: Sensitivity to ibrutinib by reduction of bioluminescence; assay type: cell-based, human; settings: 0.1 nM to 10 μM
CART19 cells [7] = settings: supra-physiologic concentrations
ITK = biological target: T1, ITK (Homo sapiens, UniProt Q08881); assay: ITK phosphorylation (pITK-Y180) in stimulated CART19 cells; assay type: cell-based
T1 sequence (Q08881 1-620): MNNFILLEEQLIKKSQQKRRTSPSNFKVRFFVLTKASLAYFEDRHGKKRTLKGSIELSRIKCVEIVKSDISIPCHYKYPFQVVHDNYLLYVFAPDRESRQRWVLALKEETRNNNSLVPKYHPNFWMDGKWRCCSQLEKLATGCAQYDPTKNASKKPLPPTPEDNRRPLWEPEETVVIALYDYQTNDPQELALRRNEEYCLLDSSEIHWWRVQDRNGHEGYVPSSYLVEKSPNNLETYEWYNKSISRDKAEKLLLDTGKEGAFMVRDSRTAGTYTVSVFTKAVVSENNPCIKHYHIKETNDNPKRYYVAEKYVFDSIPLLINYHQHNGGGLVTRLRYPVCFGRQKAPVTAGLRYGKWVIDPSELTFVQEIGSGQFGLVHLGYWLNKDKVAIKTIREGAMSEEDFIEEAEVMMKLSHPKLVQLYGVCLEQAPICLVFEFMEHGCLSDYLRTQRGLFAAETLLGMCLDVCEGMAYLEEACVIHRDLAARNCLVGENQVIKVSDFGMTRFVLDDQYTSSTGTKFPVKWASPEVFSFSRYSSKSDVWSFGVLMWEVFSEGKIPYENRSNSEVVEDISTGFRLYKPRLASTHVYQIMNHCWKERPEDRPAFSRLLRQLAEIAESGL
Description: See Dubovsky et al. Blood 122.15(2013):2539-49.

C=CC(=O)N1CCC[C@@H](n2nc(-c3ccc(Oc4ccccc4)cc3)c3c(N)ncnc32)C1 [ibrutinib, 1-[(3R)-3-[4-Amino-3-(4-phenoxyphenyl)-1H-pyrazolo[3,4-d]pyrimidin-1-yl]piperidin-1-yl]prop-2-en-1-one]
sensitivity to ibrutinib (reduction of bioluminescence) (Jeko-1 cells [1]): resistant to ibrutinib treatment
median overall survival (MCL-RL cells; 25 mg/kg/day): 81 days
median overall survival (MCL-RL cells; 125 mg/kg/day): 100 days
effect on tumor burden / tumor growth (bioluminescence) (MCL-RL cells; MCL-RL engrafted NSG mice): dose-related sensitivity; also recorded: modestly delayed tumor growth at early time points
IC50 (Mino cells): ≤ 10 µM
median duration of response (MCL): about 17.5 months
level of circulating CART19 cells (CART19 cells [2]): increases the level of circulating CART19 cells
IC50 (RL cells [3]): 0.01 µM
mean peak concentration in serum [4]: 100 to 150 ng/mL
duration of median response (mantle cell lymphoma): 17.5 months
patients who do not respond (mantle cell lymphoma): about 30%
IC50 (Jeko-1 cells [5]): ≤ 10 µM
sensitivity to ibrutinib (reduction of bioluminescence) (RL cells [6]): sensitive to ibrutinib treatment in a dose-dependent manner
effect on CART19 cell functions (CART19 cells [7]): inhibition of CART19 cell functions
phosphorylated ITK (pITK-Y180) (ITK; non-specific stimulation via the TCR): reduction in phosphorylated ITK
ITK activation (ITK; specific stimulation via the CAR): did not lead to diminished ITK activation
